Assay results taken from ChEMBL document CHEMBL1140223, “Novel multifunctional acyloxyalkyl ester prodrugs of 5-aminolevulinic acid display improved anticancer activity independent and dependent on photoactivation” (J Med Chem, 2008).
The source made the active and inactive calls. No cut-off for these calls is given here.

Tests used:
[1] = test system: U-251; experiment: Increase in pERK expression levels in human U251 cells at 100 uM after 2 hrs by Western blot relative to control; type: functional
[2] = test system: U-251; experiment: Increase in heme level in human U251 cells assessed as porphobilinogen deaminase level at 100 uM after 2 hrs by Western blot relative to control; type: functional
[3] = test system: U-251; experiment: Increase in p-c-Jun expression levels in human U251 cells at 100 uM after 2 hrs by Western blot relative to control; type: functional
[4] = test system: U-251; experiment: Induction of apoptosis in human U251 cells assessed as viable cells at 100 uM after 48 hrs using annexin-V FITC and PI staining by flow cytometry in presence of Ac-LEHD-CHO; type: functional; details: U-251, 48 h, read-out: Activity
[5] = test system: U-251; experiment: Increase in pH2AX expression levels in human U251 cells at 100 uM after 2 hrs by Western blot; type: functional, cell-based
[6] = test system: U-251; experiment: Increase in heme level in human U251 cells assessed as porphobilinogen deaminase level at 100 uM after 2 hrs by Western blot in presence of cycloheximide; type: functional, cell-based
[7] = test system: U-251; experiment: Induction of histone H4 hyperacetylation in human U251 cells at 100 uM after 4 hrs by Western blot relative to control; type: functional
[8] = test system: U-251; experiment: Increase in ROS production in human U251 cells at 50 uM after 4 hrs by FACS flow cytometry; type: functional
[9] = test system: U-251; experiment: Inhibition of 26S proteasome activity in human U251 cells at 100 uM after 48 hrs relative to control; type: cell-based; details: values are per cent of control
[10] = test system: U-251; experiment: Induction of apoptosis in human U251 cells assessed as viable cells at 100 uM after 48 hrs using annexin-V FITC and PI staining by flow cytometry in presence of Z-Asp-2,6-dichlorobenzoyloxymethylketone; type: functional; details: U-251, 48 h, read-out: Activity
[11] = test system: U-251; experiment: Inhibition of 26S proteasome activity in human U251 cells at 100 uM after 48 hrs in presence of N-acetyl-L-cysteine relative to control; type: cell-based; details: values are per cent of control
[12] = test system: U-251; experiment: Induction of apoptosis in human U251 cells assessed as mitochondrial membrane potential dissipation at 100 uM after 24 hrs using JC1 dye by FACS relative to control; type: functional
[13] = test system: U-251; experiment: Induction of apoptosis in human U251 cells assessed as increase in cleaved caspase 3 level after 24 hrs by Western blot; type: functional, cell-based
[14] = test system: U-251; experiment: Induction of apoptosis in human U251 cells assessed as late apoptotic cells at 100 uM after 48 hrs using annexin-V FITC and PI staining by flow cytometry in presence of Ac-LEHD-CHO; type: functional
[15] = test system: U-251; experiment: Increase in heme level in human U251 cells at 100 uM after 48 hrs by Western blot relative to control; type: functional
[16] = test system: U-251; experiment: Antiproliferative activity against human U251 cells assessed as PpIX release after 72 hrs by Hoechst test; type: functional, cell-based; details: U-251, 72 h
[17] = test system: U-251; experiment: Increase in protoporphyrin 9 levels in human U251 cells at 100 uM after 24 hrs relative to control; type: functional
[18] = test system: U-251; experiment: Reduction in c-myc expression levels in human U251 cells at 100 uM after 4 hrs by Western blot; type: functional, cell-based
[19] = test system: U-251; experiment: Induction of apoptosis in human U251 cells assessed as late apoptotic cells at 100 uM after 48 hrs using annexin-V FITC and PI staining by flow cytometry in presence of Z-Asp-2,6-dichlorobenzoyloxymethylketone; type: functional
[20] = test system: U-251; experiment: Induction of apoptosis in human U251 cells assessed as increase in full length caspase 8 level after 24 hrs by Western blot; type: functional, cell-based
[21] = test system: U-251; experiment: Induction of apoptosis in human U251 cells assessed as increase in cleaved caspase 9 level after 24 hrs by Western blot; type: functional, cell-based
[22] = test system: U-251; experiment: Induction of apoptosis in human U251 cells assessed as early apoptotic cells at 100 uM after 48 hrs using annexin-V FITC and PI staining by flow cytometry in presence of Ac-LEHD-CHO; type: functional
[23] = test system: U-251; experiment: Induction of necrosis in human U251 cells assessed as necrotic cells at 100 uM after 48 hrs using annexin-V FITC and PI staining by flow cytometry in presence of Ac-LEHD-CHO; type: functional
[24] = test system: U-251; experiment: Inhibition of 26S proteasome activity in human U251 cells at 100 uM after 24 hrs relative to control; type: cell-based
[25] = test system: U-251; experiment: Induction of apoptosis in human U251 cells assessed as late apoptotic cells at 100 uM after 48 hrs using annexin-V FITC and PI staining by flow cytometry; type: functional
[26] = test system: U-251; experiment: Antiproliferative activity against human U251 cells assessed as PpIX release pretreated 72 hrs before 360-410 nm light photosensitization measured after 48 hrs by Hoechst test; type: functional, cell-based
[27] = test system: U-251; experiment: Induction of apoptosis in human U251 cells assessed as viable cells at 100 uM after 48 hrs using annexin-V FITC and PI staining by flow cytometry; type: functional; details: U-251, 48 h, read-out: Activity
[28] = test system: U-251; experiment: Induction of apoptosis in human U251 cells assessed as early apoptotic cells at 100 uM after 48 hrs using annexin-V FITC and PI staining by flow cytometry; type: functional
[29] = test system: MCF7; experiment: Cytotoxicity against human MCF7 cells after 72 hrs by Hoechst test; type: functional, cell-based; details: MCF7, 72 h
[30] = Cytotoxicity against human MCF7/DX cells after 72 hrs by Hoechst test; type: functional, cell-based
[31] = test system: U-251; experiment: Increase in CDKp21 expression levels in human U251 cells at 100 uM after 4 hrs by Western blot; type: functional, cell-based
[32] = test system: U-251; experiment: Induction of apoptosis in human U251 cells assessed as early apoptotic cells at 100 uM after 48 hrs using annexin-V FITC and PI staining by flow cytometry in presence of Z-Asp-2,6-dichlorobenzoyloxymethylketone; type: functional
[33] = test system: U-251; experiment: Induction of necrosis in human U251 cells assessed as necrotic cells at 100 uM after 48 hrs using annexin-V FITC and PI staining by flow cytometry; type: functional
[34] = test system: U-251; experiment: Increase in ROS production in human U251 cells at 50 uM after 4 hrs by FACS flow cytometry in presence of N-acetyl-L-cysteine; type: functional, cell-based
[35] = test system: U-251; experiment: Induction of histone H4 hyperacetylation in human U251 cells at 100 uM after 24 hrs by Western blot relative to control; type: functional
[36] = test system: U-251; experiment: Induction of necrosis in human U251 cells assessed as necrotic cells at 100 uM after 48 hrs using annexin-V FITC and PI staining by flow cytometry in presence of Z-Asp-2,6-dichlorobenzoyloxymethylketone; type: functional
[37] = test system: U-251; experiment: Cytotoxicity against human U251 cells assessed as ROS production by Hoechst test in presence of N-acetyl-L-cysteine; type: functional, cell-based
[38] = test system: U-251; experiment: Cytotoxicity against human U251 cells after 72 hrs by Hoechst test; type: functional, cell-based; details: U-251, 72 h
[39] = test system: HL-60; experiment: Cytotoxicity against human HL60 cells after 72 hrs by MTT assay; type: functional, cell-based; details: HL-60, 72 h
[40] = test system: U-251; experiment: Increase in protoporphyrin 9 levels in human U251 cells at 200 uM after 24 hrs relative to control; type: functional
[41] = test system: U-251; experiment: Increase in CDKp21 expression levels in human U251 cells at 100 uM after 24 hrs by Western blot; type: functional, cell-based
[42] = test system: U-251; experiment: Increase in ROS production in human U251 cells at 100 uM after 4 hrs by FACS; type: functional, cell-based
[43] = test system: U-251; experiment: Inhibition of 26S proteasome activity in human U251 cells at 1 mM after 48 hrs; type: cell-based
[44] = test system: U-251; experiment: Increase in ROS production in human U251 cells at 100 uM after 4 hrs by FACS in presence of N-acetyl-L-cysteine; type: functional, cell-based
[45] = test system: U-251; experiment: Inhibition of 26S proteasome activity in human U251 cells at 0.5 mM after 24 hrs; type: cell-based

Compound	fold change (FC) [2]	viability at 100 µM [4]	Activity [6]	residual activity [9]	viability at 100 µM [10]	residual activity [11]	Activity [14]	Activity [19]	Activity [22]	Activity [23]	Activity [25]	viability at 100 µM [27]	Activity [28]	IC50 [29]	IC50 [30]	Activity [32]	Activity [33]	Activity [36]	IC50 [38]	IC50 [39]	further results
CCCC(=O)OCOC(=O)CCC(=O)CN.Cl	8	81%	inactive	56%	80%	64%	2%	5%	2%	15%	17%	47%	17%	74 µM	84 µM	4%	19%	11%	89 µM	57 µM	fold change (FC) [1]: 5.4; fold change (FC) [3]: 9.5; Activity [5]: Active; fold change (FC) [7]: 1.4; Activity [8]: 68%; fold change (FC) [12]: 2.4; Activity [13]: Active; Activity [15]: 260%; IC50 [16]: 99 µM; fold change (FC) [17]: 6.6; Activity [18]: Active; Activity [20]: Active; Activity [21]: Active; inhibition [24]: 40%; IC50 [26]: 59 µM; Activity [31]: Active; Activity [34]: Active; fold change (FC) [35]: 2; Activity [37]: Active; fold change (FC) [40]: 12.4
CCCC(CCC)C(=O)OC(C)OC(=O)CCC(=O)CN (centres undefined)	–	–	–	–	–	–	–	–	–	–	–	–	–	–	–	–	–	–	1040 µM	780 µM	–
CCCC(=O)OC(C)OC(=O)CCC(=O)CN.Cl (centres undefined)	2	86%	–	117%	88%	146%	3%	3%	3%	8%	6%	80%	4%	714 µM	807 µM	2%	10%	7%	728 µM	274 µM	fold change (FC) [7]: 1.4; Activity [8]: Active; Activity [41]: Active; IC50 [16]: 767 µM; fold change (FC) [17]: 5; IC50 [26]: 509 µM; Activity [37]: Active; fold change (FC) [40]: 7.8
NCC(=O)CCC(=O)O [AMINOLEVULINIC ACID]	2	78%	Active	100%	76%	102%	3%	5%	2%	17%	14%	76%	6%	1740 µM	3480 µM	2%	7%	17%	2660 µM	1570 µM	Activity [42]: Active; Activity [15]: 130%; IC50 [16]: 2720 µM; fold change (FC) [17]: 3; Activity [43]: Active; Activity [20]: Active; IC50 [26]: 2720 µM; Activity [44]: inactive; fold change (FC) [40]: 7.2
CC(OC(=O)CCC(=O)CN)OC(=O)C(C)(C)C (centres undefined)	–	–	–	–	–	–	–	–	–	–	–	–	–	–	–	–	–	–	2040 µM	1390 µM	–
CCCC(=O)O [BUTYRIC ACID]	–	–	–	74%	–	80%	–	–	–	–	–	–	–	–	–	–	–	–	932 µM	–	Activity [42]: Active; Activity [15]: 126%; Activity [45]: Active; Activity [44]: Active
CCCC(=O)OCOP(=O)(OCC)OCC [(DIETHOXYPHOSPHORYLOXY)METHYL BUTYRATE]	–	–	–	–	–	–	–	–	–	–	–	–	–	–	–	–	–	–	89 µM	–	Activity [24]: Active; Activity [34]: Active; Activity [40]: inactive
CC(C)(C)C(=O)OCOC(=O)CCC(=O)CN.Cl	2	77%	Active	54%	82%	101%	4%	5%	2%	17%	9%	67%	15%	64 µM	61 µM	2%	9%	11%	93 µM	44 µM	Activity [7]: inactive; fold change (FC) [12]: 3; Activity [13]: Active; Activity [20]: Active; Activity [21]: Active; Activity [34]: inactive; Activity [37]: inactive
CCCC(CCC)C(=O)OCOC(=O)CCC(=O)CN	–	–	–	–	–	–	–	–	–	–	–	–	–	–	–	–	–	–	64 µM	–	–
